From US11136336B2, “Thienopyrimidones” (Boehringer Ingelheim International GmbH, priority 2019, dated 2021)
One block for each compound: values may come before it.

What was measured:
[1] = Assay C: Hepatocyte clearance; format: in vitro ADME; settings: human hepatocyte suspension, 1 μM test compound, six hours
Procedure: Assay C: Hepatocyte Clearance
The metabolic degradation of the test compound is assayed in a hepatocyte suspension. Hepatocytes (cryopreserved) are incubated in. Dulbecco's modified eagle medium (supplemented with 3.5 μg glucagon/500 mL, 2.5 mg insulin/500 mL and 3.75 mg/500 mL hydrocortison) containing 5% or 50% species serum.
Following a 30 min preincubation in an incubator (37° C., 10% CO2) 5 μl of test compound solution (80 μM; from 2 mM in DMSO stock solution diluted 1:25 with medium) are added into 395 μl hepatocyte suspension (cell density in the range 0.25-5 Mio cells/mL depending on the species, typically 1 Mio cells/mL; final concentration of test compound 1 μM, final DMSO concentration 0.05%).
The cells are incubated for six hours (incubator, orbital shaker) and samples (25 μl) are taken at 0, 0.5, 1, 2, 4 and 6 hours. Samples are transferred into acetonitrile and pelleted by centrifugation (5 min). The supernatant is transferred to a new 96-deepwell plate, evaporated under nitrogen and resuspended.
Decline of parent compound is analyzed by HPLC-MS/MS
CLint is calculated as follows CL_[…]=Dose/AUC=(C0/CD)/(AUD+clast/k)×1000/60. C0: initial concentration in the incubation [μM], CD: cell density of vital cells [10e6cells/mL], AUD: area under the data [μM×h], clast: concentration of last data point [μM], k: slope of the regression line for parent decline [h−1].
The calculated in vitro hepatic intrinsic clearance can be scaled up to the intrinsic in vivo hepatic Clearance and used to predict hepatic in vivo blood clearance (CL) by the use of a liver model (well stirred model).

[2] = Assay B: Microsomal clearance; format: in vitro ADME; settings: pooled human liver microsomes, 1 mg/ml protein, 1 μM test compound, 37° C.
Procedure: Assay B: Microsomal Clearance:
The metabolic degradation of the test compound is assayed at 37° C. with pooled liver microsomes. The final incubation volume of 100 μl per time point contains TRIS buffer pH 7.6 at RT (0.1 M), magnesium chloride (5 mM), microsomal protein (1 mg/ml) and the test compound at a final concentration of 1 μM.
Following a short preincubation period at 37° C., the reactions are initiated by addition of beta-nicotinamide adenine dinucleotide phosphate, reduced form (NADPH, 1 mM) and terminated by transferring an aliquot into solvent after different time points (0, 5, 15, 30, 60 min). Additionally, the NADPH-independent degradation is monitored in incubations without NADPH, terminated at the last time point. The [%] remaining test compound after NADPH independent incubation is reflected by the parameter c(control) (metabolic stability). The quenched incubations are pelleted by centrifugation (10000 g, 5 min).
An aliquot of the supernatant is assayed by LC-MS/MS for the amount of parent compound. The half-life (t1/2 INVITRO) is determined by the slope of the semilogarithmic plot of the concentration-time profile.

human TRPA1 ion channel = human TRPA1 ion channel (Homo sapiens (Human), UniProt O75762); test: Assay A: TRPA1 cell assay (FLIPR, AITC-induced intracellular calcium); format: cell-based; settings: HEK293 cells over-expressing human TRPA1; agonist AITC 10 μM; FLIPRtetra; read-out: hTRPA1 IC50
Sequence of human TRPA1 ion channel (O75762 whole entry): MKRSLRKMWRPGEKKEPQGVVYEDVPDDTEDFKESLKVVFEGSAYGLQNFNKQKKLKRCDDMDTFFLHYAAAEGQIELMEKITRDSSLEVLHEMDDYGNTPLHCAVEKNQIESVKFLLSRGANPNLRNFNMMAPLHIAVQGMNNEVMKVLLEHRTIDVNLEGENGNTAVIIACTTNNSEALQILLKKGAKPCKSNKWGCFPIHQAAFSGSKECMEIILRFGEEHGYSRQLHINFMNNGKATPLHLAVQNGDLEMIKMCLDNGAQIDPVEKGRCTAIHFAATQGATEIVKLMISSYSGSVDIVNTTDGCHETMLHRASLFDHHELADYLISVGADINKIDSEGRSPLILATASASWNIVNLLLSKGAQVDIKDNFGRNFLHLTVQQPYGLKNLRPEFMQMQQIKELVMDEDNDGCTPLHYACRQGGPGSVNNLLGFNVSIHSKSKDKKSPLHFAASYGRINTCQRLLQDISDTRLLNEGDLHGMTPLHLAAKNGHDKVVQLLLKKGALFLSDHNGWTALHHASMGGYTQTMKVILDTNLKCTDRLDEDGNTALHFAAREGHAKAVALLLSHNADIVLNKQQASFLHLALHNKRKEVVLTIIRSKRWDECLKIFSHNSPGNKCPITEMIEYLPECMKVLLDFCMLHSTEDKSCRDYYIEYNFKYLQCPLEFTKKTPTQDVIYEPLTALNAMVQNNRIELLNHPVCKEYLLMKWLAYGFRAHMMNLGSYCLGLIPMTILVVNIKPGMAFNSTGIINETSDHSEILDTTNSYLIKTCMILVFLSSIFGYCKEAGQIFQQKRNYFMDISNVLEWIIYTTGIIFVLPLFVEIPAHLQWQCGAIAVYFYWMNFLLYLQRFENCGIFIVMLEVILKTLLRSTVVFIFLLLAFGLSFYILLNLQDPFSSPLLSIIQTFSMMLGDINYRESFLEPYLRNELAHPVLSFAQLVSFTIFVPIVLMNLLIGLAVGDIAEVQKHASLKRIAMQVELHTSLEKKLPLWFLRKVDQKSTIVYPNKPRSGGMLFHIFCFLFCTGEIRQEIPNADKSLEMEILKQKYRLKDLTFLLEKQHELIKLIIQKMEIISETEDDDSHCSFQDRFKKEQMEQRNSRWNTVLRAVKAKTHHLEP
Procedure: A human HEK293 cell line over-expressing the human TRPA1 ion channel (Perkin Elmer, Product No. AX-004-PCL) was used as a test system for compound efficacy and potency. Compound activity was determined by measuring the effect of compounds on intracellular calcium concentration induced by AITC (Allylisothiocyanat) agonism in a FLIPRtetra system (Molecular Devices).
The cells were obtained as frozen cells in cryo-vials and stored until use at −150° C. Cells were grown in culture medium (MEM/EBSS medium with 10% FCS and 0.4 mg/ML Geneticin). […] For sub-culturing cells were detached from flasks by Versene. At the day before the assay, cells were detached, washed twice with medium (MEM/EBSS medium with 10% FCS) and 20000 cells in 20p/well were seeded to Poly D-Lysin biocoated 384-well plates (black, clear bottom, Cat. 356697) from Corning. Plates were incubated for 24 hours at 37° C./5% CO2 before use in the assay.
The test compounds were dissolved in 100% DMSO at a concentration of 10 mM and in a first step diluted in DMSO to a concentration of 5 mM, followed by serial dilution steps in 100% DMSO. Dilution factor and number of dilution steps may vary according to needs. Typically 8 different concentrations by 1:5 dilutions were prepared, further intermediate dilutions (1:20) of the substances were carried out with HBSS/HEPES buffer (1×HEPES, Cat.14065 from Gibco, 20 mM HEPES, Cat. 83264 from SIGMA, 0.1% BSA Cat.11926 from Invitrogen, pH 7,4
At the assay day cells were washed 3× with assay puffer, 20 μL buffer remained in the wells after washing. 10 μL Ca6 kit (Cat.R8191 MolecularDevices) loading buffer in HBSS/HEPES was added to the cells and the plates were incubated with lid for 120 minutes at 37°/5% CO2. 10 μL of compound or controls in HBSS/HEPES buffer/5% DMSO from the intermediate dilution plate were carefully added to the wells. […] Finally 10 μL of the agonist AITC 50 μM dissolved in HBSS/HEPES buffer/0.05% DMSO (final concentration 10 μM) was added to the wells followed by an additional read on the FLIPRtetra device for 10 minutes. The area under the signal curve (AUC) after AITC addition was used for IC50/% inhibition calculations
Each assay microtiter plate contained wells with vehicle (1% DMSO) controls instead of compound as controls for AITC induced luminescence (100% CTL; high controls) and wells with vehicle controls without AITC as controls for non-specific changes in luminescence (0% CTL; low controls).
The analysis of the data was performed by the calculation of the area under signal curve of the individual wells. Based on this values the % value for the measurement of each substance concentration was calculated (AUC(sample)−AUC(low))*100/(AUC(high)−AUC(low)) using MegaLab software (in house development). The IC50 values were calculated from the % control values using MegaLab software. Calculation: [y=(ad)/(1+(x/c)^b)+d], a=low value, d=high value; x=conc M; c=IC50 M; b=hill; y=% ctrl

Compound: Cc1ccc([C@@H](O)Cc2noc(Cn3cnc4sc(C(N)=O)c(C)c4c3=O)n2)cc1 [Example 2]
human Hepatocytes [% Qh] [1]: 29 % Qh | human LM [% Qh] [2]: <23 % Qh | IC50 (human TRPA1 ion channel): 20 nM

Compound: Cc1c(C(N)=O)sc2ncn(Cc3nc(C[C@H](O)c4cc5ccccc5o4)no3)c(=O)c12 [Example 3]
human Hepatocytes [% Qh] [1]: 36 % Qh | human LM [% Qh] [2]: <23 % Qh | IC50 (human TRPA1 ion channel): 19 nM

Compound: Cc1c(C(N)=O)sc2ncn(Cc3nc(C[C@H](O)c4ccc(F)c(F)c4)no3)c(=O)c12 [Example 5]
human Hepatocytes [% Qh] [1]: 37 % Qh | human LM [% Qh] [2]: <23 % Qh | IC50 (human TRPA1 ion channel): 48 nM

Compound: Cc1c(C(N)=O)sc2ncn(Cc3nc(C[C@H](O)c4cc(F)cc(F)c4)no3)c(=O)c12 [Example 6]
human Hepatocytes [% Qh] [1]: 23 % Qh | human LM [% Qh] [2]: <23 % Qh | IC50 (human TRPA1 ion channel): 48 nM

Compound: CNC(=O)c1sc2ncn(Cc3nc(C[C@H](O)c4ccc(Cl)cc4)no3)c(=O)c2c1C [Example 11]
human Hepatocytes [% Qh] [1]: 29 % Qh | human LM [% Qh] [2]: <23 % Qh | IC50 (human TRPA1 ion channel): 10 nM

Compound: Cc1c(C(=O)NCC(F)F)sc2ncn(Cc3nc(C[C@H](O)c4ccc(Cl)cc4)no3)c(=O)c12 [Example 12]
human Hepatocytes [% Qh] [1]: 36 % Qh | human LM [% Qh] [2]: 24 % Qh | IC50 (human TRPA1 ion channel): 15 nM

Compound: Cc1c(C(=O)NCC(C)(C)O)sc2ncn(Cc3nc(C[C@H](O)c4ccc(Cl)cc4)no3)c(=O)c12 [Example 13]
human Hepatocytes [% Qh] [1]: 18 % Qh | human LM [% Qh] [2]: <23 % Qh | IC50 (human TRPA1 ion channel): 37 nM

Results, then the compound that gave them:

human Hepatocytes [% Qh] [1]: 25 % Qh | human LM [% Qh] [2]: 29 % Qh | IC50 (human TRPA1 ion channel): 13 nM
Compound: Cc1c(C(N)=O)sc2ncn(Cc3nc(C[C@H](O)c4ccc(Cl)cc4)no3)c(=O)c12 [Example 1, 3-({3-[(2S)-2-(4-chlorophenyl)-2-hydroxyethyl]-1,2,4-oxadiazol-5-yl}methyl)-5-methyl-4-oxo-3H,4H-thieno[2,3-d]pyrimidine-6-carboxamide]

human Hepatocytes [% Qh] [1]: 29 % Qh | human LM [% Qh] [2]: <23 % Qh | IC50 (human TRPA1 ion channel): 33 nM
Compound: Cc1c(C(N)=O)sc2ncn(Cc3nc(C[C@H](O)c4ccc(F)cc4)no3)c(=O)c12 [Example 4]

human Hepatocytes [% Qh] [1]: 39 % Qh | human LM [% Qh] [2]: 23 % Qh | IC50 (human TRPA1 ion channel): 34 nM
Compound: Cc1c(C(N)=O)sc2ncn(Cc3nc(C[C@H](O)c4ccc5c(c4)OC(F)(F)O5)no3)c(=O)c12 [Example 7]

human Hepatocytes [% Qh] [1]: 24 % Qh | human LM [% Qh] [2]: <23 % Qh | IC50 (human TRPA1 ion channel): 56 nM
Compound: Cc1c(C(N)=O)sc2ncn(Cc3nc(C[C@H](O)c4ccc5c(c4)OCO5)no3)c(=O)c12 [Example 8]

human Hepatocytes [% Qh] [1]: 24 % Qh | human LM [% Qh] [2]: 29 % Qh | IC50 (human TRPA1 ion channel): 78 nM
Compound: CNC(=O)c1sc2ncn(Cc3nc(C[C@H](O)c4ccc5c(c4)OCO5)no3)c(=O)c2c1C [Example 9]

human Hepatocytes [% Qh] [1]: 25 % Qh | human LM [% Qh] [2]: <23 % Qh
Compound: CNC(=O)c1sc2ncn(Cc3nc(C[C@H](O)c4ccc(F)cc4)no3)c(=O)c2c1C [Example 10]

human Hepatocytes [% Qh] [1]: 24 % Qh | human LM [% Qh] [2]: <23 % Qh | IC50 (human TRPA1 ion channel): 33 nM
Compound: CNC(=O)c1sc2ncn(Cc3nc(C[C@H](O)c4ccc(F)c(F)c4)no3)c(=O)c2c1C [Example 14]

human Hepatocytes [% Qh] [1]: 31 % Qh | human LM [% Qh] [2]: <23 % Qh | IC50 (human TRPA1 ion channel): 9 nM
Compound: O=C1NCCc2c1sc1ncn(Cc3nc(C[C@H](O)c4ccc(Cl)cc4)no3)c(=O)c21 [Example 15]

human Hepatocytes [% Qh] [1]: 39 % Qh | human LM [% Qh] [2]: <23 % Qh | IC50 (human TRPA1 ion channel): 16 nM
Compound: NC(=O)c1sc2ncn(Cc3nc(C[C@H](O)c4ccc(Cl)cc4)no3)c(=O)c2c1Cl [Example 16]
